{
  "source": "ChEMBL document CHEMBL4765281",
  "about": "“Development of a novel nitric oxide (NO) production inhibitor with potential therapeutic effect on chronic inflammation” (Eur J Med Chem, 2020)",
  "key": {"RAW264.7 [1]": {"tested_on": "RAW264.7", "test": "Inhibition of LPS-induced nitric oxide production in mouse RAW264.7 cells at 10 uM measured after 24 hrs by Griess reagent based assay relative to control", "format": "functional"}, "RAW264.7 [2]": {"tested_on": "RAW264.7", "test": "Inhibition of LPS-induced nitric oxide production in mouse RAW264.7 cells", "format": "functional, cell-based"}, "RAW264.7 [3]": {"tested_on": "RAW264.7", "test": "Inhibition of LPS-induced nitric oxide production in mouse RAW264.7 cells measured after 24 hrs by Griess reagent based assay", "format": "functional, cell-based", "conditions": "RAW264.7, 24 h"}, "RAW264.7 [4]": {"tested_on": "RAW264.7", "test": "Cytotoxicity against mouse RAW264.7 cells assessed as reduction in cell viability measured after 24 hrs by MTT assay", "format": "cell-based", "conditions": "RAW264.7, 24 h"}},
  "data": [
    {"smiles": "COc1cc(O)c(C(=O)/C=C/c2cc(OC)c(OC)c(OC)c2)c(OC)c1", "values": [
      {"measurement": "inhibition at 10 µM", "setting": "RAW264.7 [1]", "result": 77.4, "unit": "%"}
    ]},
    {"smiles": "COc1ccc(/C=C(\\F)C(=O)c2c(O)cc(OC)cc2OC)cc1", "values": [
      {"measurement": "inhibition at 10 µM", "setting": "RAW264.7 [1]", "result": 50.3, "unit": "%"}
    ]},
    {"smiles": "COc1cc(O)c(C(=O)/C(F)=C/c2ccc(C)cc2)c(OC)c1", "values": [
      {"measurement": "inhibition at 10 µM", "setting": "RAW264.7 [1]", "result": 50.8, "unit": "%"}
    ]},
    {"smiles": "COc1ccc(/C=C/C(=O)c2c(O)cc(OC)cc2OC)cc1", "note": "[FLAVOKAWAIN A]", "values": [
      {"measurement": "inhibition at 10 µM", "setting": "RAW264.7 [1]", "result": 79.5, "unit": "%"}
    ]},
    {"smiles": "COc1cc(/C=C/C(=O)c2ccc(F)cc2)cc(OC)c1OC", "values": [
      {"measurement": "IC50", "setting": "RAW264.7 [2]", "result": 0.033, "unit": "µM"}
    ]},
    {"smiles": "COc1cccc(/C=C(\\F)C(=O)c2c(O)cc(OC)cc2OC)c1", "values": [
      {"measurement": "inhibition at 10 µM", "setting": "RAW264.7 [1]", "result": 58.1, "unit": "%"}
    ]},
    {"smiles": "O=C(/C=C/c1ccccc1O)c1ccsc1", "values": [
      {"measurement": "IC50", "setting": "RAW264.7 [2]", "result": 5.75, "unit": "µM"}
    ]},
    {"smiles": "COc1cc(C(=O)/C=C/c2cc(OC)c(OC)c(OC)c2)ccc1O", "values": [
      {"measurement": "IC50", "setting": "RAW264.7 [2]", "result": 4.19, "unit": "µM"}
    ]},
    {"smiles": "COc1ccc(/C=C/C(=O)c2ccccc2O)cc1", "values": [
      {"measurement": "inhibition at 10 µM", "setting": "RAW264.7 [1]", "result": 76.7, "unit": "%"}
    ]},
    {"smiles": "COc1cc(O)c(C(=O)/C=C/c2ccc3c(c2)OCO3)c(OC)c1", "values": [
      {"measurement": "inhibition at 10 µM", "setting": "RAW264.7 [1]", "result": 70, "unit": "%"}
    ]},
    {"smiles": "COc1cc(O)c(C(=O)/C=C/c2ccc(OC)c(Br)c2)c(OC)c1", "values": [
      {"measurement": "inhibition at 10 µM", "setting": "RAW264.7 [1]", "result": 73.8, "unit": "%"}
    ]},
    {"smiles": "COc1ccc(OC)c(/C=C/C(=O)c2c(O)cc(OC)cc2OC)c1", "values": [
      {"measurement": "inhibition at 10 µM", "setting": "RAW264.7 [1]", "result": 73.7, "unit": "%"}
    ]},
    {"smiles": "COc1cc(O)c(C(=O)/C(F)=C/c2ccccc2)c(OC)c1", "values": [
      {"measurement": "inhibition at 10 µM", "setting": "RAW264.7 [1]", "result": 47.4, "unit": "%"}
    ]},
    {"smiles": "COc1cccc(/C=C(\\C)C(=O)c2c(O)cc(OC)cc2OC)c1", "values": [
      {"measurement": "inhibition at 10 µM", "setting": "RAW264.7 [1]", "result": 68.3, "unit": "%"}
    ]},
    {"smiles": "COc1cccc(/C=C/C(=O)c2c(O)cc(OC)cc2OC)c1", "values": [
      {"measurement": "inhibition at 10 µM", "setting": "RAW264.7 [1]", "result": 86.9, "unit": "%"},
      {"measurement": "IC50", "setting": "RAW264.7 [3]", "result": 2.4, "unit": "µM"},
      {"measurement": "IC50", "setting": "RAW264.7 [4]", "result": 34, "unit": "µM"}
    ]},
    {"smiles": "CC1(C)C=Cc2cc(C(=O)/C=C/c3ccc(O)cc3)c(O)cc2O1", "note": "[4-HYDROXYISOLONCHOCARPIN]", "values": [
      {"measurement": "IC50", "setting": "RAW264.7 [2]", "result": 2.4, "unit": "µM"}
    ]},
    {"smiles": "COc1cc(O)c(C(=O)/C(C)=C/c2ccc(C)cc2)c(OC)c1", "values": [
      {"measurement": "inhibition at 10 µM", "setting": "RAW264.7 [1]", "result": 56.8, "unit": "%"}
    ]},
    {"smiles": "COc1cc(O)c(C(=O)/C=C/c2ccc(OCCCN3CCCCC3)c(OC)c2)c(OC)c1", "values": [
      {"measurement": "inhibition at 10 µM", "setting": "RAW264.7 [1]", "result": 74.8, "unit": "%"}
    ]},
    {"smiles": "COc1cc(O)c(C(=O)/C(F)=C/c2ccc(O)cc2)c(OC)c1", "values": [
      {"measurement": "inhibition at 10 µM", "setting": "RAW264.7 [1]", "result": 70, "unit": "%"}
    ]},
    {"smiles": "COc1ccc(/C=C/C(=O)c2ccc(OC)cc2O)cc1", "values": [
      {"measurement": "inhibition at 10 µM", "setting": "RAW264.7 [1]", "result": 70, "unit": "%"}
    ]},
    {"smiles": "COc1cc(O)c(C(=O)/C=C/c2ccc(OC)c(O)c2)c(OC)c1", "values": [
      {"measurement": "inhibition at 10 µM", "setting": "RAW264.7 [1]", "result": 70.6, "unit": "%"}
    ]},
    {"smiles": "COc1cc(O)c(C(=O)/C=C/c2ccc(OCCO)cc2)c(OC)c1", "values": [
      {"measurement": "inhibition at 10 µM", "setting": "RAW264.7 [1]", "result": 73.6, "unit": "%"}
    ]},
    {"smiles": "COc1cccc(O)c1C(=O)/C=C/c1cccc(Br)c1", "values": [
      {"measurement": "IC50", "setting": "RAW264.7 [2]", "result": 7.8, "unit": "µM"}
    ]},
    {"smiles": "COc1cccc(C2CC(=O)c3c(OC)cc(OC)cc3O2)c1", "note": "(configuration not stated)", "values": [
      {"measurement": "inhibition at 10 µM", "setting": "RAW264.7 [1]", "result": 57.3, "unit": "%"}
    ]},
    {"smiles": "COc1cc(O)c(C(=O)/C=C/c2ccc(C)cc2)c(OC)c1", "values": [
      {"measurement": "inhibition at 10 µM", "setting": "RAW264.7 [1]", "result": 82.1, "unit": "%"},
      {"measurement": "IC50", "setting": "RAW264.7 [3]", "result": 6.3, "unit": "µM"},
      {"measurement": "IC50", "setting": "RAW264.7 [4]", "result": "> 40", "unit": "µM"}
    ]},
    {"smiles": "COc1cc(O)c(C(=O)/C=C/c2ccc(OCCCO)cc2)c(OC)c1", "values": [
      {"measurement": "inhibition at 10 µM", "setting": "RAW264.7 [1]", "result": 78.2, "unit": "%"}
    ]},
    {"smiles": "COc1cccc(/C=C/C(=N\\O)c2c(O)cc(OC)cc2OC)c1", "values": [
      {"measurement": "inhibition at 10 µM", "setting": "RAW264.7 [1]", "result": 46.4, "unit": "%"}
    ]},
    {"smiles": "CC1(C)C=Cc2cc(/C=C/C(=O)c3ccc(O)cc3O)ccc2O1", "values": [
      {"measurement": "IC50", "setting": "RAW264.7 [2]", "result": 2.2, "unit": "µM"}
    ]}
  ]
}
